Values joined by “and” are separate entries in the source; they are usually repeats but may differ in a detail not shown here. Equal values may be shown once. Where a SMILES comes first, the peptide text is derived from it. [ ]: non-standard residue; d: D form. Hyp = O=C(O)[C@@H]1C[C@@H](O)CN1
Tested on: IL-1 alpha
Assay: Example 9 Luminex, LPS hPBMCs: IL-1 alpha
Assay type: cell-based, human
Settings: IL-1 alpha, replicates and Mean
Protocol: Treatment Human PBMCs were pretreated with YY-101, YDE-011 and YDE-043 or reference compound; Xiidra® at various concentration (ranging from 1 nM to 100 uM) for 2 h before stimulation. An equal volume of 0.5% DMSO was used as a vehicle control. Then, the cells were treated with LPS at 5 ug/ml. The supernatants from treated cells were harvested at 24 h and placed in a 96 well for Luminex cytokine & chemokine profiling using a Luminex 200 multiplex assay (Luminex; R&D system, USA).
The main study arm with triplicate wells per group in a 24-well plate: • 1. Blank • 2. PBMC: 0.5% DMSO • 3. PBMC+LPS (5 ug/ml) • 4. PBMC+YY-101 100 uM • 5. PBMC+YY-101 10 uM • 6. PBMC+YY-101 1 uM • 7. PBMC+YY-101 0.1 uM • 8. PBMC+YY-101 0.01 uM • 9. PBMC+LPS (5 ug/ml)+Xiidra®100 uM • 10. PBMC+LPS (5 ug/ml)+Xiidra® 10 uM • 11. PBMC+LPS (5 ug/ml)+Xiidra® 1 uM • 12. PBMC+LPS (5 ug/ml)+Xiidra®0.1 uM • 13. PBMC+LPS (5 ug/ml)+Xiidra®0.01 uM • 14. PBMC+LPS (5 ug/ml)+Xiidra®0.001 uM • 15. PBMC+LPS (5 ug/ml)+YY-101 100 uM • 16. PBMC+LPS (5 ug/ml)+YY-101 10 uM • 17. PBMC+LPS (5 ug/ml)+YY-101 1 uM • 18. PBMC+LPS (5 ug/ml)+YY-101 0.1 uM • 19. PBMC+LPS (5 ug/ml)+YY-101 0.01 uM • 20. PBMC+LPS (5 ug/ml)+YY-101 0.001 uM • 21. PBMC+LPS (5 ug/ml)+YDE-011 100 uM • 22. PBMC+LPS (5 ug/ml)+YDE-011 10 uM • 23. PBMC+LPS (5 ug/ml)+YDE-011 1 uM • 24. PBMC+LPS (5 ug/ml)+YDE-011 0.1 uM • 25. PBMC+LPS (5 ug/ml)+YDE-011 0.01 uM • 26. PBMC+LPS (5 ug/ml)+YDE-011 0.001 uM • 27. PBMC+LPS (5 ug/ml)+YDE-043 100 uM • 28. PBMC+LPS (5 ug/ml)+YDE-043 10 uM • 29. PBMC+LPS (5 ug/ml)+YDE-043 1 uM • 30. PBMC+LPS (5 ug/ml)+YDE-043 0.1 uM • 31. PBMC+LPS (5 ug/ml)+YDE-043 0.01 uM • 32. PBMC+LPS (5 ug/ml)+YDE-043 0.001 uM
Multiplex assay was used to measure 30 cytokines and chemokines. The 1:2, 1:10 and 1:200 diluted cell supernatant and serial dilution of the standard were dispensed into a 96 well plate at 50 ul/well. Then, the pre-mixed cocktail of antibody-coated magnetic beads was dispensed at 50 ul/well and incubated at room temperature for 2 h in a horizontal orbital microplate shaker at 800±500 rpm. The beads were washed using a magnetic device to prevent loss. The biotin-antibody was dispensed in 50 ul of each well and incubated at room temperature for 1 h in a shaker at 800±500 rpm. After washing, streptavidin-PE was added at 50 ul/well and incubated at room temperature for 30 min in a shaker under the same conditions. Finally, after washing, wash buffer (100 ul/well) was added to the plate and incubated in a shaker for 2 min. The Luminex™ 200 setting were set according to the manufacturer's protocol. The data was calculated with a standard five-parameter logistic nonlinear regression analysis of the data (xPonent software 4.2, USA). The levels of cytokine/chemokine are normalized to the live cell counts (1×10^5 cells/mL) and presented as concentrations per mL (pg/mL or ng/mL).

[1] = PBMC + LPS(5 ug/ml) + YY101 0.001 uM
[2] = PBMC + LPS(5 ug/ml) + YY101 0.001 uM, mean
[3] = PBMC + LPS(5 ug/ml) + YY101 0.01 uM
[4] = PBMC + LPS(5 ug/ml) + YY101 0.01 uM, mean
[5] = PBMC + LPS(5 ug/ml) + YY101 0.1 uM
[6] = PBMC + LPS(5 ug/ml) + YY101 0.1 uM, mean
[7] = PBMC + LPS(5 ug/ml) + YY101 1 uM
[8] = PBMC + LPS(5 ug/ml) + YY101 1 uM, mean
[9] = PBMC + LPS(5 ug/ml) + YY101 10 uM
[10] = PBMC + LPS(5 ug/ml) + YY101 10 uM, mean
[11] = PBMC + LPS(5 ug/ml) + YY101 100 uM
[12] = PBMC + LPS(5 ug/ml) + YY101 100 uM, mean
[13] = PBMC + YY101 0.01 uM (second group so labelled), no LPS
[14] = PBMC + YY101 0.01 uM (second group so labelled), no LPS, mean
[15] = PBMC + YY101 0.01 uM, no LPS, mean
[16] = PBMC + YY101 1 uM, no LPS, mean
[17] = PBMC + YY101 10 uM, no LPS, mean
[18] = PBMC + YY101 100 uM, no LPS, mean

In the case of `CC(C)C[C@H](NC(=O)CNC(=O)[C@H](CC(=O)O)NC(=O)[C@H](CCC(N)=O)NC(=O)CNC(=O)[C@@H]1C[C@@H](O)CN1)C(=O)N[C@@H](C)C(=O)NCC(=O)N1CCC[C@H]1C(=O)N[C@@H](CCCCN)C(=O)O` [YY-101] (H-[Hyp]GQDGLAGPK-OH; N-terminus and C-terminus assumed), the Concentration [1] is reported as 426.2 pg/mL and 461.9 pg/mL and 419.9 pg/mL, the conc/live cell [1] is reported as 74.8 pg/10^5 and 65.1 pg/10^5 and 63.6 pg/10^5 and the Concentration [2] is reported as 436.0 pg/mL. The conc/live cell [2] was 67.8 pg/10^5, the Concentration [3] was 506.1 pg/mL and 475.9 pg/mL and 484.7 pg/mL and the conc/live cell [3] was 79.1 pg/10^5 and 79.3 pg/10^5 and 79.5 pg/10^5. The Concentration [4] was 488.9 pg/mL, the conc/live cell [4] was 79.3 pg/10^5 and the Concentration [5] was 491.3 pg/mL and 481.8 pg/mL and 482.5 pg/mL. For the same compound, the conc/live cell [5] was 79.2 pg/10^5 and 92.6 pg/10^5 and 77.8 pg/10^5, the Concentration [6] was 485.2 pg/mL and the conc/live cell [6] was 83.2 pg/10^5. The Concentration [7] was 451.2 pg/mL and 427.3 pg/mL and 434.3 pg/mL, the conc/live cell [7] was 71.6 pg/10^5 and 60.2 pg/10^5 and 70.0 pg/10^5 and the Concentration [8] was 437.6 pg/mL. For the same compound, the conc/live cell [8] was 67.3 pg/10^5, the Concentration [9] was 473.3 pg/mL and 470.7 pg/mL and 483.6 pg/mL and the conc/live cell [9] was 78.9 pg/10^5 and 73.6 pg/10^5 and 63.6 pg/10^5. The Concentration [10] was 475.9 pg/mL, the conc/live cell [10] was 72.0 pg/10^5 and the Concentration [11] was 656.9 pg/mL and 616.5 pg/mL and 614.2 pg/mL. For the same compound, the conc/live cell [11] was 104.3 pg/10^5 and 99.4 pg/10^5 and 122.8 pg/10^5, the Concentration [12] was 629.2 pg/mL and the conc/live cell [12] was 108.8 pg/10^5. The Concentration [13] was 1.0 pg/mL and 5.3 pg/mL, the conc/live cell [13] was 0.2 pg/10^5 and 0.9 pg/10^5 and the Concentration [14] was 3.1 pg/mL. For the same compound, the conc/live cell [14] was 0.6 pg/10^5, the Concentration (PBMC + YY101 0.01 uM, no LPS) was 1.0 pg/mL and 5.3 pg/mL and the conc/live cell (PBMC + YY101 0.01 uM, no LPS) was 0.2 pg/10^5 and 1.1 pg/10^5. It also gave a Concentration [15] of 3.1 pg/mL, a conc/live cell [15] of 0.6 pg/10^5 and a Concentration (PBMC + YY101 1 uM, no LPS) of 5.3 pg/mL. The conc/live cell (PBMC + YY101 1 uM, no LPS) was 1.0 pg/10^5, the Concentration [16] was 5.3 pg/mL and the conc/live cell [16] was 1.0 pg/10^5. The Concentration (PBMC + YY101 10 uM, no LPS) was 31.7 pg/mL and 7.1 pg/mL, the conc/live cell (PBMC + YY101 10 uM, no LPS) was 5.0 pg/10^5 and 1.2 pg/10^5 and the Concentration [17] was 19.4 pg/mL. The conc/live cell [17] was 3.1 pg/10^5, the Concentration (PBMC + YY101 100 uM, no LPS) was 10.4 pg/mL and 5.3 pg/mL and the conc/live cell (PBMC + YY101 100 uM, no LPS) was 1.6 pg/10^5 and 0.8 pg/10^5. The Concentration [18] was 7.9 pg/mL and the conc/live cell [18] was 1.2 pg/10^5.

Reference: US20230146455A1, “TREATMENT OF INFLAMMATORY DISEASES WITH PEPTIDES AND PHARMACEUTICAL COMPOSITIONS” (Yuyu Pharma, Inc., priority 2020, published 2023)
